Experimental data from publication PMC6350621, “Small-molecules that covalently react with a human prolyl hydroxylase – towards activity modulation and substrate capture” (Chemical Communications (Cambridge, England), 2018).

Tests used:
[1] = biological target: T1, PHD2 truncated at residue 410 (Homo sapiens, UniProt Q9GZT9); assay: Non-denaturing ESI-MS crosslinking, 410 truncate; assay type: binding; details: equimolar FeSO4 and compound, 3 h, 37 °C, 200 V
T1 construct: PHD2 constructs truncated at residues 402, 410, 414 and 418; Both the 418 (PHD2_181–418); His6 (N, cleaved yes); made in house; host or cells: bacterial culture (2x TY, kanamycin, IPTG)
T1 sequence (Q9GZT9 181-410): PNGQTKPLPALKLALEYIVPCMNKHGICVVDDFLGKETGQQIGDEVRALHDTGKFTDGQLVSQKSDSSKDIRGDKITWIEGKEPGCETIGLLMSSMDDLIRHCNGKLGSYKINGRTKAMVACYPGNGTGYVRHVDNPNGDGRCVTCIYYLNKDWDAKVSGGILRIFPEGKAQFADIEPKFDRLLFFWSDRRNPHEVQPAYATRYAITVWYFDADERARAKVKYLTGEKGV
Protocol: (§1) The site of crosslinking of 3 was investigated using protein variants. First, 3 was incubated with C-terminal truncated PHD2 (PHD2_181–402) and a loop deletion variant (deletion of residues 238–250, PHD2Δ). […] Thus, 3 was incubated with PHD2 constructs truncated at residues 402, 410, 414 and 418. […] Crosslinking experiments with PHD2 R411M implied that R411 is not directly involved in crosslinking (Fig. S11, ESI ^†).
(§2) Fig. S8 Temperature dependence of the rate of crosslinking of 3 with PHD2. PHD2 (20 µM) was incubated with equimolar Fe(II) and 3 in buffer (50 mM Tris, 150 mM NaCl, pH 7.5) at 4, 20 and 37 °C. The ratio of crosslinking after 1, 2, and 4 h was determined by ESI-MS under denaturing conditions (n = 2), error bars represent 1 standard deviation.
(§3) Fig. S9 Ratio of crosslinked PHD2.3 before evaluation of catalytic activity. Labelled peaks correspond to: (A): PHD2, […]
(§4) Fig. S10 Non-denaturing ESI-MS analysis of (a) PHD2 and its C-terminal truncations (b) PHD2181-418; (c) PHD2181-414;
(§5) (d) PHD2181-410; (e) PHD2181-402 in the presence of equimolar amounts of FeSO4 and 3 after 3 hours incubation at 37 °C in ammonium acetate (15 mM, pH 7.5) at a sample cone voltage of 200V. Peaks present: (A): PHD2.Fe; (B): PHD2181-

PHD2_181–418 = biological target: T2, PHD2_181–418 (Homo sapiens, UniProt Q9GZT9); assay: Non-denaturing ESI-MS crosslinking, 418 truncate; assay type: binding; details: equimolar FeSO4 and compound, 3 h, 37 °C, 200 V
T2 construct: Both the 418 (PHD2_181–418); His6 (N, cleaved yes); made in house; host or cells: bacterial culture (2x TY, kanamycin, IPTG)
T2 sequence (Q9GZT9 181-418): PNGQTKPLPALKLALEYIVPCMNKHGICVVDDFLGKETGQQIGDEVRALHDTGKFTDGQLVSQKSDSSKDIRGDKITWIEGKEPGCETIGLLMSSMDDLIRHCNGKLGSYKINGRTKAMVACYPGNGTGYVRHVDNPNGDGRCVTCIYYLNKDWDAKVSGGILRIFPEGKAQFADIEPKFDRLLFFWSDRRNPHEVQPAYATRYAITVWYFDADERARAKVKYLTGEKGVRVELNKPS
Protocol: as §1, §2, §3, §4, §5

crosslinking with 410 truncate [1]: Crosslinking did not occur | covalent modification of 418 truncate (PHD2_181–418): covalently modified
Structure (SMILES): C=CC(=O)Nc1cccc(C(=O)NCC(=O)O)c1O [compound 3]
